From patent US12472219B2, “Encapsulated cannabinoid formulations for transdermal delivery” (Nutrae, LLC, priority 2018, dated 2025)

Assay: Encapsulation efficiency by ultracentrifugation and HPLC

SMILES | encapsulation efficiency of CBD (% EE) (active ingredient 1% (w/w), oleic acid and polysorbate 20 preparation) [%] | encapsulation efficiency, THC compared with CBD (tested concentrations 6% and 10% (w/w), oleic acid and polysorbate 20)
C=C(C)[C@@H]1CCC(C)=C[C@H]1c1c(O)cc(CCCCC)cc1O [CBD, cannabidiol] | 80.11 | 
CCCCCc1cc(O)c2c(c1)OC(C)(C)[C@@H]1CCC(C)=C[C@@H]21 [THC, Δ9-tetrahydrocannabinol] |  | generally higher for THC over CBD
